Results taken from patent US20260193227A1, “THERAPEUTIC COMPOUNDS AND METHODS” (UNIVERSITY OF IOWA RESEARCH FOUNDATION, priority 2022, published 2026).
“Also recorded” adds a separate entry of the source.

Molecular target: T1, RAD52-ssDNA interaction (Homo sapiens, UniProt P43351)
T1 construct: 6xHis; made in house
T1 sequence (P43351 1-418): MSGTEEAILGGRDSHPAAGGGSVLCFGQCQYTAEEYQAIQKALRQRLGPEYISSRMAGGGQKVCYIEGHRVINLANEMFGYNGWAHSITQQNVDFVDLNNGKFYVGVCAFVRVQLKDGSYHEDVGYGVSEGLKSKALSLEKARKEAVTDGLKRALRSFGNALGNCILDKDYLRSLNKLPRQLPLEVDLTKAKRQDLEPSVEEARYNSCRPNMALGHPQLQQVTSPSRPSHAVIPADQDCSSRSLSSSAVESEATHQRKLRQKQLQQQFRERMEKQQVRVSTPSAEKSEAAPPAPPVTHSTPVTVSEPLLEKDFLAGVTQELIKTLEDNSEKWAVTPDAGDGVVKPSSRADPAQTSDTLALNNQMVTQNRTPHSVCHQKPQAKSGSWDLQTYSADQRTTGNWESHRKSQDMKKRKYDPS
Assay: FRET-based inhibition of the RAD52-ssDNA interaction
Assay type: binding
Conditions: for effect on the RAD52-ssDNA complex / capacity to inhibit RAD52: FRET titration; for selectivity towards RAD52 over RPA: in vitro FRET-based assays
Description: Proteins: The 6×His-tagged human RAD52 proteins (wild type and mutants) and untagged human RPA were expressed and purified as previously described in (Hengel S R, eLife. 2016; 5; Grimme J M, et al., Nucleic Acids Res. 2010; 38(9):2917-30; and Henricksen L A, et al., The Journal of biological chemistry. 1994; 269(15):11121-32). RPA and RAD52 protein concentrations were determined by measuring absorbance at 280 nm using extinction coefficients of 88,830 M^−1 cm^−1 and 40,470 M^−1 cm^−1, respectively.
FRET-based DNA binding and inhibition assays: FRET-based that monitor the RAD52-ssDNA, RPA-ssDNA and RAD52-RPA-ssDNA binding were carried out as previously described (Hengel S R, eLife. 2016; 5; Grimme J M, et al., Nucleic Acids Res. 2010; 38(9):2917-30; and Grimme J M, Spies M. FRET-based assays to monitor DNA binding and annealing by Rad52 recombination mediator protein. Methods in molecular biology (Clifton, NJ). 2011; 745:463-83) using Cary Eclipse Spectrofluorimeter (Agilent) at 25° C., in 5 mm quartz cuvettes, and in buffer containing 30 mM Tris-Acetate (pH 7.5) and 1 mM DTT. Cy3 dye was excited at 530 nm and its emission was monitored at 565 nm. Emission of Cy5 acceptor fluorophore excited through the energy transfer from Cy3 donor is monitored at 660 nm simultaneously with emission of Cy3 dye. Both the excitation and the emission slits were set to 10 nm. All experiments were carried out using 1 nM (molecules) Cy3-dT30-Cy5 ssDNA. The optimal concentrations of the RAD52 (6 nM) and RPA (1 nM) proteins were selected by titrating the respective protein into 1 nM Cy3-dT30-Cy5 solution, and chosen based on the largest separation of the FRET values corresponding to the protein bound and free DNA.
The inhibition of the RAD52-ssDNA, RPA-ssDNA and RAD52-RPA-ssDNA complexes was evaluated by titrating each compound to the respective complex, measuring Cy3 and Cy5 fluorescence, and calculating FRET as previously described (Hengel, S. R., et al., eLife, 5).
Spectral properties of many compounds overlapped with the Cy3 and Cy5 fluorescence. To correct the calculated FRET values for the compound signal, the fluorogenic compounds were titrated into buffer and into solution of 1 nM Cy3-dT30-Cy5. For all tested compounds, the change in the signal in the Cy3 and Cy5 channels with and without Cy3/Cy5-labeled DNA present was the same. […] To account for the dye fluorescence, for each compound concentration, the apparent change in FRET of the ssDNA in the presence the compound was subtracted from the respective FRET signal of the RAD52-ssDNA, RPA-ssDNA or RAD52-ssDNA-RPA complex at the same inhibitor concentration. The IC50 values were calculated by fitting the corrected FRET data to the four-parameter dose response model using GraphPad Prism. All data are shown as average for at least three independent experiments ±standard deviation. The IC50 values are presented with their respective fitting error.

| Structure (SMILES) | effect on the RAD52-ssDNA complex / capacity to inhibit RAD52 | selectivity towards RAD52 over RPA (listed as Z99) | selectivity towards RAD52 over RPA (listed as Z56) |
| --- | --- | --- | --- |
| O=C(Cn1cccc([N+](=O)[O-])c1=O)c1c[nH]c2ccccc12 [Example 1] | FRET decrease | more promiscuous also inhibiting RPA; also recorded: more promiscuous, inhibited RPA in vitro | – |
| COc1ccccc1NS(=O)(=O)c1cc(C(=O)O)ccc1C [Example 8] | FRET decrease | – | specific to RAD52 over RPA in vitro; also recorded: shows selectivity towards RAD52 over RPA |
